{"source": "patent US20230255877A1", "about": "“COMPOSITION FOR IMPROVING SKIN COMPRISING STEAMED CITRUS PEEL EXTRACT AS ACTIVE INGREDIENT” (LG HOUSEHOLD & HEALTH CARE LTD., priority 2022, published 2023)", "key": {"human dermal fibroblasts": {"tested_on": "human dermal fibroblasts", "test": "Collagen synthesis promotion in human dermal fibroblasts (procollagen 1α1 ELISA)", "assay_type": "cell-based", "procedure": "In order to confirm the collagen synthesis promoting effect of the citrus peel extracts, the amount of additional collagen production was measured after the extracts were untreated, steamed for 30 minutes, or steamed for 8 hours. In order to culture human dermal fibroblasts, a mixture of DMEM and FBS was used as a basic medium, and the skin fibroblasts were seeded into a 48-well plate at a concentration of 2 to 5×10^4 cells/mL and cultured for 24 hours. The medium was removed, and the DMSO lysate of each extract was treated in serum-free medium so that the concentration was 100 ppm, and cultured for 24 hours. A positive control that promotes collagen synthesis was treated with TGF-β to a concentration of 5 ppb. The cell culture solution was taken and the synthesized collagen was measured using the Human procollagen 1α1 duoset ELISA Kit (R&D Systems) and ELISA reader. A calibration curve was prepared by measuring the isolated and purified collagen at concentrations of 0.25, 0.5, 1, 2, 4, and 8 ng/mL, and based on the results, the amount of collagen (Type I collagen) produced in the DMSO lysate of the citrus peel extracts was calculated. The amount of collagen produced compared to the control group (DMSO) was calculated as collagen production rate (%), and the average value was calculated after the experiment was performed three times (Table 14).\nIn order to identify the cause of the change in collagen synthesis promoting efficacy among the steamed citrus peel extract components, the amount of additional collagen production of hesperidin, a flavonoid glycone, and hesperetin, a flavonoid aglycone, was compared (Table 15)."}, "Raw264.7 cells": {"tested_on": "Raw264.7 cells", "test": "NO production inhibition in lipopolysaccharide-treated Raw264.7 cells (GRIESS reagent)", "assay_type": "cell-based", "procedure": "In order to confirm the anti-inflammatory effect of the citrus peel extracts, NO production inhibition rate was measured after the extracts were untreated, steamed for 30 minutes, or steamed for 8 hours. In order to culture Raw264.7 cells, a mixture of DMEM (Dulbecco's Modified Eagle's Medium) and FBS (Fetal Bovine Serum) was used as a basic medium, and the Raw264.7 cells were seeded into a 24-well plate at a concentration of 1 to 2×10^5 cells/mL and cultured for 24 hours. The medium was removed and the cells were starvated in serum-free medium for 12 hours, and thereafter, the DMSO lysate of each extract was treated so that the concentration was 200 ppm, and after 30 minutes, lipopolysaccharide was added at a concentration of 500 ng/ml and cultured for 18 hours. L-NMMA, a positive control, was treated at 20 ppm. After completion of the culture, the supernatant was taken and transferred to a 96-well plate, reacted at room temperature by adding the GRIESS reagent, and the absorbance at 540 nm was measured using an ELISA reader. The amount of NO inhibited compared to the control group was calculated as NO production inhibition rate (%), and the average value was calculated after the experiment was performed three times.\nIn order to identify the cause of the change in anti-inflammatory efficacy among the steamed citrus peel extract components, the NO production inhibition rates of hesperidin, a flavonoid glycone, and hesperetin, a a flavonoid aglycone, were compared (Table 13)"}}, "data": [{"compound": "TGF-β: positive control that promotes collagen synthesis", "values": [{"measurement": "Additional Collagen Production Rate", "setting": "human dermal fibroblasts; positive control, 5 ppb, Table 14", "value": 25.2, "unit": "%"}, {"measurement": "Additional Collagen Production Rate", "setting": "human dermal fibroblasts; positive control, Table 15", "value": 23.7, "unit": "%"}]}, {"compound": "COc1ccc([C@@H]2CC(=O)c3c(O)cc(O)cc3O2)cc1O", "note": "[Hesperetin, hesperetin]", "values": [{"measurement": "inhibition at 0.1 ppm", "setting": "Raw264.7 cells; Mus musculus, RAW264.7, 0.1 ppm, read-out: NO Production Inhibition Rate", "value": -3, "unit": "%"}, {"measurement": "inhibition at 1 ppm", "setting": "Raw264.7 cells; Mus musculus, RAW264.7, 1 ppm, read-out: NO Production Inhibition Rate", "value": 2.6, "unit": "%"}, {"measurement": "inhibition at 10 ppm", "setting": "Raw264.7 cells; Mus musculus, RAW264.7, 10 ppm, read-out: NO Production Inhibition Rate", "value": 8.1, "unit": "%"}, {"measurement": "inhibition at 20 ppm", "setting": "Raw264.7 cells; Mus musculus, RAW264.7, 20 ppm, read-out: NO Production Inhibition Rate", "value": 35.6, "unit": "%"}, {"measurement": "Additional Collagen Production Rate", "setting": "human dermal fibroblasts; 0.1 ppm", "value": 17.0, "unit": "%"}, {"measurement": "Additional Collagen Production Rate", "setting": "human dermal fibroblasts; 1 ppm", "value": 16.8, "unit": "%"}]}, {"compound": "COc1ccc([C@@H]2CC(=O)c3c(O)cc(O[C@@H]4O[C@H](CO[C@@H]5O[C@@H](C)[C@H](O)[C@@H](O)[C@H]5O)[C@@H](O)[C@H](O)[C@H]4O)cc3O2)cc1O", "note": "[Hesperidin, hesperidin]", "values": [{"measurement": "NO Production Inhibition Rate", "setting": "Raw264.7 cells; 0.1 ppm", "value": "−5.5", "unit": "%"}, {"measurement": "NO Production Inhibition Rate", "setting": "Raw264.7 cells; 1 ppm", "value": 0.6, "unit": "%"}, {"measurement": "NO Production Inhibition Rate", "setting": "Raw264.7 cells; 10 ppm", "value": 1.8, "unit": "%"}, {"measurement": "NO Production Inhibition Rate", "setting": "Raw264.7 cells; 20 ppm", "value": 2.4, "unit": "%"}, {"measurement": "Additional Collagen Production Rate", "setting": "human dermal fibroblasts; 0.1 ppm", "value": "−0.2", "unit": "%"}, {"measurement": "Additional Collagen Production Rate", "setting": "human dermal fibroblasts; 1 ppm", "value": 0.2, "unit": "%"}]}, {"compound": "CNC(=N)NCCC[C@H](N)C(=O)O", "note": "[L-NMMA]", "values": [{"measurement": "NO Production Inhibition Rate", "setting": "Raw264.7 cells; positive control, 20 ppm, Table 12", "value": 55.1, "unit": "%"}, {"measurement": "NO Production Inhibition Rate", "setting": "Raw264.7 cells; positive control, Table 13", "value": 51.3, "unit": "%"}]}]}
